Reference: patent US20230219946A1, “PYRIMIDIN-4(3H)-ONE HETEROCYCLIC COMPOUND, PREPARATION METHOD THEREOF, AND PHARMACEUTICAL USE THEREOF” (Beijing Innocare Pharma Tech Co., Ltd., priority 2020, published 2023)
Counter-ions that a name gives are not always drawn.

Key:
[1] = biological target: T1, Recombinant human SHP2 full-length protein (Homo sapiens, UniProt Q06124); assay: SHP2 activity inhibition measurement (fluorescence detection, surrogate substrate DiFMUP); assay type: biochemical; settings: recombinant human SHP2 full-length protein activated with diphosphopeptide
T1 construct: Recombinant human SHP2 full-length protein
T1 sequence (Q06124 1-593): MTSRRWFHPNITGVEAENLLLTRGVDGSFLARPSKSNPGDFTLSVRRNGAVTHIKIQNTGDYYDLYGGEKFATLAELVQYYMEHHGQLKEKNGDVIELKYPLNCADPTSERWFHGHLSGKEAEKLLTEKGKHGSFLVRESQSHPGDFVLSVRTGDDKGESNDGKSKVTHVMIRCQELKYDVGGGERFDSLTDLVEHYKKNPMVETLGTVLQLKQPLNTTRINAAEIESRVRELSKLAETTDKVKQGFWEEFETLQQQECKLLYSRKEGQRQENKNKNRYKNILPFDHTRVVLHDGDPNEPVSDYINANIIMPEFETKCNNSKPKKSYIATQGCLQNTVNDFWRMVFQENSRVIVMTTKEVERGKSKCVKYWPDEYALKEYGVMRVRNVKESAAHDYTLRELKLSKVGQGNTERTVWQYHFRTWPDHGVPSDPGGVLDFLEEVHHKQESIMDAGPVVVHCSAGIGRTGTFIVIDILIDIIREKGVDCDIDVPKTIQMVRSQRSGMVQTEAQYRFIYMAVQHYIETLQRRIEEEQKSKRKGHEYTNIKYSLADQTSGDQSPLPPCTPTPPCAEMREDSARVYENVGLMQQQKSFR
Procedure: SHP2 activity inhibition measurement
The effect of the compound of the present invention on SHP2 activity is evaluated by rapid fluorescence detection method using the surrogate substrate DiFMUP.
(§1) The experimental method is outlined as follows:
Recombinant human SHP2 full-length protein was expressed and purified by the protein purification and identification platform of Tsinghua University; diphosphopeptide (H2N-LN(pY)IDLDLV-(dPEG8)LST(pY)ASINFQK-amide) was synthesized by Nanjing GenScript Biotechnology Co., Ltd.; surrogate substrate DiFMUP was purchased from Thermo Fisher Scientific (Cat. No. D6567); reaction buffer contained the following components: 60 mM HEPES (pH 7.2), 75 mM NaCl, 75 mM KCl, 1 mM EDTA, 0.05% TWEEN 20, and 5 mM DTT.
The compound was dissolved in DMSO (Sigma, Cat. No. D5879) and diluted to 100 μM. The resulting solution was serially diluted 4-fold with DMSO to a minimum concentration of 6.1 nM, and each concentration point was diluted 25-fold with the reaction buffer.
10 μL of compound solution and 10 μL of 0.25 nM SHP2 protein solution were added to a 384-well microplate (Corning, Cat. No. 3575), mixed well, and incubated at room temperature for 30 min. 10 μL of 0.5 μM diphosphopeptide (dissolved in the reaction buffer) was added, mixed well, and incubated at room temperature for 30 to 60 min. Subsequently, 10 μL of 60 μM DiFMUP solution (dissolved in the reaction buffer) was added, mixed well, and let stand at room temperature. After 30 min, fluorescence signals were measured at 340 nm (excitation wavelength)/450 nm (emission wavelength) using a microplate reader (EnSpire, Perkin Elmer). The fluorescence intensity value was positively correlated with the degree of dephosphorylation of the substrate, thereby reflecting the catalytic activity of SHP2. […] An inhibition curve of the compound was plotted by XLfit software and the inhibitory IC50 was calculated.

[2] = system: human non-small cell lung cancer cell line NCI-H358; assay: NCI-H358 cell proliferation inhibition (luminescent cell viability assay, CTG); assay type: cell-based; settings: 120 h, NCI-H358 cells, 5 days, CellTiter-Glo
Procedure: Determination of NCI-H358 cell proliferation inhibition
The effect of the compound of the present invention on proliferation of human non-small cell lung cancer cell line NCI-H358 is evaluated by luminescent cell viability assay.
as §1
The compound was dissolved in DMSO (Sigma, Cat. No. D5879) and diluted to 5 mM. The resulting solution was serially diluted 4-fold with DMSO to a minimum concentration of […], and each concentration point was diluted 50-fold with RPMI 1640 Medium (Thermo Fisher Scientific, Cat. No. 11995073). When the IC50 value of the compound was low, the initial concentration of the compound was further reduced.
NCI-H358 cells (ATCC, Cat. No. CRL-5807) were cultured in RPMI 1640 Complete Medium [RPMI 1640 Medium was supplemented with 10% FBS (GBICO, Cat. No. 10099-141) and 100 units/mL Penicillin-Streptomycin (Thermo Fisher Scientific, Cat. No. 15140122)]. The cells (15,000 cells/mL) were seeded in 90 μL of Complete Medium on a 96-well plate. After culturing overnight, 10 μL of compound solution was added to each well and cultured at 37° C. in a 5% CO2 incubator for 5 days. According to the instruction from the CellTilter-Glo (CTG) kit (Promega, Cat. No. G7572), the cell culture plate was removed from incubator and equilibrated to room temperature. The cells were lysed fully with 50 μL of CTG reagent and placed at room temperature for 10 min. A luminescence signal was read by the microplate reader (EnVision, Perkin Elmer). […] An inhibition curve of the compound was plotted by XLfit software and the inhibitory IC50 was calculated.

[3] = biological target: hERG potassium channel (Homo sapiens, UniProt Q12809); settings: 3 μM test compound, whole-cell patch clamp, HEK293-hERG, room temperature
Sequence of hERG potassium channel (Q12809 whole entry): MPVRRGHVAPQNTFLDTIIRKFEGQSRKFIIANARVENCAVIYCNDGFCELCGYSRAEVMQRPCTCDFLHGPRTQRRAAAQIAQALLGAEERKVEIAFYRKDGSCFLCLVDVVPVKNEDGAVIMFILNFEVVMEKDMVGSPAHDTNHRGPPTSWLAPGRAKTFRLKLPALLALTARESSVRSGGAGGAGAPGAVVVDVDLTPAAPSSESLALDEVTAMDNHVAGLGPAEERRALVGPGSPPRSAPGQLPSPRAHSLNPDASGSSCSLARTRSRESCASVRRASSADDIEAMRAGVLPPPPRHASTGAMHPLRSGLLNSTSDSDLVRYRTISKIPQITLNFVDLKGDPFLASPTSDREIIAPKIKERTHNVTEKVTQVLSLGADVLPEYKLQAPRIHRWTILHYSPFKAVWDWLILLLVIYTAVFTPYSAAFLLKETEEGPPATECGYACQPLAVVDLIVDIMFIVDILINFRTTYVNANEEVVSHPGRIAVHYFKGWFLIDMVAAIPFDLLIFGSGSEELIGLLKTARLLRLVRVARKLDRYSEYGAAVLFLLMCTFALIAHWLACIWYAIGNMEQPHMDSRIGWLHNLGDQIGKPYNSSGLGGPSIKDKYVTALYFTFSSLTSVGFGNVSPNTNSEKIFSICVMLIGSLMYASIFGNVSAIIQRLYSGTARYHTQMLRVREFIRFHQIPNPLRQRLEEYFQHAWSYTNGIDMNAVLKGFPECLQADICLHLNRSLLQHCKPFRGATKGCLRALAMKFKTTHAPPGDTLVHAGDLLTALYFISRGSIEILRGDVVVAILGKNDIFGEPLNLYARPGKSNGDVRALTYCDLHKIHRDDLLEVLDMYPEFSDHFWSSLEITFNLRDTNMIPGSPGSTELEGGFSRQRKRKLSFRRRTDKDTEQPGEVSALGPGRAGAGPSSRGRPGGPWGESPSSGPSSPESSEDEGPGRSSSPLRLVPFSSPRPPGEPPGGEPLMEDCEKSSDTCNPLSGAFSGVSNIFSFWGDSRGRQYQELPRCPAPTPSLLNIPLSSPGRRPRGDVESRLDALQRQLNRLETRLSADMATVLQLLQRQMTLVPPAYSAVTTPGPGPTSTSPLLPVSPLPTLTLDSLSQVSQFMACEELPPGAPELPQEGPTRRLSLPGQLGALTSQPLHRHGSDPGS
Procedure: All electrophysiological experiments were conducted at room temperature.

Cn1cc2c(Cl)c(Sc3cnc(N4CCC5(CCC[C@H]5N)CC4)n(C)c3=O)ccc2n1 [Compound 7, (R)-2-(1-amino-8-azaspiro[4.5]decan-8-yl)-5-((4-chloro-2-methyl-2H-indazole-5-yl)thio)-3-methylpyrimidin-4(3H)-one hydrochloride]
IC50 [1]: 12 nM
IC50 [2]: 575 nM
hERG current inhibition percentage at 3 μM solubility (n = 2) [3]: 10%
